Results on one substance are retold here after US20030153081A1, “Viral core protein-cationic lipid-nucleic acid-delivery complexes” (priority 1999, published 2003).

One data set concerns ND7 cells. Description: β-galactosidase reporter gene assay, transfection of undifferentiated ND7 cells. The class given is cell-based, rat/mouse. The procedure: ND7 cells were seeded at a density of 5 ×10^4 cells/well in 24 well culture dishes 24 hrs prior to transfection. Immediately prior to transfection, cells were washed in serum-free media. Complexes were formed by incubating pCMVβ with Mu1 prior to the addition of the cationic liposome DC-Chol/DOPE. In each case 1 μg pCMVβ was complexed with 0.6, 6, 12, and 21 μg Mu1 peptide. Each of these combinations was then complexed with 3, 4 and 6 μg DC-Chol/DOPE. ND7 cells were exposed to transfection complexes for 2 hours then maintained at 37° C., 5% CO2 for another 24 hrs before being harvested and processed for β-galactosidase enzyme assay. Numbers represent means±SD, n=3.
pCMVβ plasmid DNA was complexed to various amounts of polycationic peptide and then mixed with cationic liposome at a ratio of 1:3 (pCMVβ:liposome; w/w). After being washed briefly in serum free media, ND7 cells were exposed to the […] complexes for two hours and then returned to serum containing media Twenty-four hours later the cells were harvested and processed for β-galactosidase enzyme assay. Each condition was performed in triplicate and each experiment replicated three times. Numbers represent means±SD.
ND7s are a well-characterized cell line derived from the fusion of a neuroblastoma N18Tg2) with neonatal rat sensory neurons ^28. The cell line was maintained in normal growth media (NGM) (Leibovitz's L-15 media (BRL) enriched with 10% Fetal bovine serum (BRL), 4 g/L glucose, 4 g/L sodium bicarbonate (BRL), 100 IU/mL penicillin/streptomycin (BRL)) at 37° C. and 5% CO2. The cells were plated onto 24 well plates (Costar) at a density that produced 70% confluence after 24 hours.
Since initial experiments determined that the presence of fetal bovine serum inhibited transfection of ND7 cells serum-free differentiation media was used for all transfections. Various amounts of DNA and liposome were placed in the bottom of a 7 mL sterile Bijou container (Bibby Sterilin Ltd., Staffordshire, U.K.), but not in contact with each other.
DNA and liposomes were combined by the addition of 400 μL serum-free differentiation media and gentle shaking. The DNA: liposome mixture was incubated at room temperature for 20 to 30 minutes before being applied to the cells. The DNA/liposome mixture was then applied to the cells and incubated at 37° C., 5% CO2 for 2 hours after which this media was replaced with complete media Twenty four to 48 hours later the cells were fixed and processed for X-gal histochemistry as described ^31 or harvested for β-galactosidase enzyme assays (Promega Corp.).
Transfection complexes including the test peptides were generated in the following manner. Various amounts of peptide was placed in the bottom of sterile polystyrene containers alongside, but not in contact with 1 μg·pCMVβ and mixed by adding 400 μl serum free NGM media The complexes were incubated at room temperature for 10 minutes after which DC-Chol/DOPE was added. The pDNA/peptide/liposome complex was further incubated at room temperature for 20 minutes and then administered to cells as above.
We examined the ability of Mu1 and Vp1 to enhance the transfection of a neuronal cell line by cationic liposomes using a β-Galactosidase reporter gene assay. ND7 cells were transfected with pCMVβ complexed to varying amounts of peptide and DC-Chol/DOPE. We have previously shown that the cationic liposome DC-Chol/DOPE is capable of efficiently transfecting the neuronally derived ND7 cell line ^31. […] Temporally, maximal levels of transgene expression are obtained between 48-60 hours post transfection. Therefore, in order to maximize the chance of detecting improvements in transfection we performed all our assays within 12-20 hours of transfection at a time when levels of reporter gene expression were lower. Previously we found a pDNA: liposome ratio of 1:3 (w/w) optimal for transfections in ND7 cells ^31. […]
A general note: Reporter assays use an easily measured gene product as a stand-in for the process of interest.

Another data set has as its system HeLa cells. Description: β-galactosidase assay, alternative cationic peptides in HeLa cells. Format: cell-based, human. The following applies: DC-Chol:DOPE liposome:peptide:DNA 12:0.6:1, 30 min, DNA 1.0 μg/ml. As for the experimental part:
In order to examine the effects of various alternative cationic peptides on transfection activities, a series of liposome:cationic peptide:DNA complexes were prepared and their relative transfection abilities analysed in vitro. The peptides used were poly-lysine hydrochloride (average molecular weight 3970, Sigma), poly arginine hydrochloride (average molecular weight 11800, Sigma) a peptide derived from protein V, pV (p5, sequence shown below), a peptide analogue of Mu1 (V, sequence shown below) and Mu1 peptide itself. The p5 peptide and V peptide were synthesized using the same solid-phase peptide synthesis methodology as was used to prepare Mu1 peptide.
Each peptide was combined with cationic liposome (DC-Chol:DOPE 3:2 m/m) and DNA (pCMVβ) in the liposome:peptide:DNA ratio of 12:0.6:1 (w/w/w) as described in Example 4. The transfection activities were examined using HeLa cells (human epithelial cells). The cells were seeded at an approximate density of 5×10^4 per well in a 24-well culture plate in DMEM supplemented with 10% FCS and grown for 24 h in the presence of 5% CO2 at 37° C. Cells were washed by brief exposure to DMEM and then treated with solutions containing LMD or LD complexes, prediluted with OPTIMEM (Gibco) (final DNA concentration 1.0 μg/ml in all cases), for 30 min. Cells were then washed again and incubated for a further 48 h in DMEM supplemented with 10% FCS prior to harvesting. The level of β-galactosidase enzyme activity was determined with a standard assay kit (chemiluminescent, Roche).

Regarding H-MRRAHHRRRRASHRRMRGG-OH [Mu1], the “concentration in solution, optimal transfections” value with ND7 cells (12 μg Mu1/1 μg pCMVβ, 400 μL) came to 30 ng/mL. In addition, the “relative ratios pCMVβ/Mu1/(DC-Chol/DOPE) giving greatest improvement in transfection efficiencies” value in the data set with ND7 cells (0.6-21 μg Mu1, 3-6 μg liposome per 1 μg pCMVβ tested) is given as 1/12/6. Moreover, the “increase in transfections compared to DNA alone” value with ND7 cells (1/12/6 pCMVβ/Mu1/(DC-Chol/DOPE) w/w/w) was determined as 11 fold. For the same substance, the “concentration of protein in the cellular lysates vs untransfected cells” value in the data set on ND7 cells (Mu1 complex (data not shown)) is recorded as “did not significantly vary”. In addition, in the data set on ND7 cells (pCMVβ complexed to Mu1 alone, no liposome), the “improvement in transfection efficiencies over naked DNA” value is recorded as “No improvement in transfection efficiencies over naked DNA”. Further, the “effect on transfection efficiencies” value in the data set with ND7 cells (pDNA:Mu1 1:0.5 (w/w) with liposomes, initial experiments (not shown)) is recorded as “did not affect transfection efficiencies”. In the data set with ND7 cells (β-galactosidase activity, Mu1 with DC-Chol/DOPE vs liposome without Mu1), the “improvement of cationic liposome mediated transfection efficiencies” value is “over 4 fold”. Further, in the data set on HeLa cells, the “transfection activity compared to poly lysine and poly arginine complexes” value is “excellent transfection activity”.
